In brackets after ≈: the same amount, converted by molar mass. Activity calls are given as the source filed them. No cut-off for these calls is given here. Where a SMILES comes first, the peptide text is derived from it. Bridges are numbered along the chain shown (N, C = ends). [ ]: non-standard residue; d: D form. The star is where a group is joined. Ileψ(thiazoline)Cys = CC[C@H](C)[C@H](N)C1=N[C@H](C(=O)*)CS1; dOrn = NCCC[C@@H](N)C(=O)O
Tests used:
Klebsiella pneumoniae = experiment: Antibacterial activity against Klebsiella pneumoniae ATCC 700603 assessed as inhibition of bacterial growth incubated for 18 hrs by microbroth dilution assay; assay type: functional
Bacillus subtilis = experiment: Antibacterial activity against Bacillus subtilis ATCC 23857 assessed as inhibition of bacterial growth incubated for 18 hrs by microbroth dilution assay; assay type: functional
Escherichia coli = experiment: Antibacterial activity against Escherichia coli ATCC 25922 assessed as inhibition of bacterial growth incubated for 18 hrs by microbroth dilution assay; assay type: functional
Pseudomonas aeruginosa [1] = experiment: Antibacterial activity against Pseudomonas aeruginosa ATCC 27853 assessed as inhibition of bacterial growth incubated for 18 hrs by microbroth dilution assay; assay type: functional
[2] = Hemolytic activity in Kunming mouse erythrocytes assessed as hemolysis incubated for 1 hr by multimode reader analysis; assay type: toxicity, cell-based; conditions: erythrocyte
[3] = Retention time of the compound by RP-HPLC analysis; assay type: physicochemical
[4] = tested on: Staphylococcus epidermidis; experiment: Antibacterial activity against Staphylococcus epidermidis ATCC 12228 assessed as inhibition of bacterial growth incubated for 18 hrs by microbroth dilution assay; assay type: functional
Staphylococcus aureus = experiment: Antibacterial activity against Staphylococcus aureus ATCC 25923 assessed as inhibition of bacterial growth incubated for 18 hrs by microbroth dilution assay; assay type: functional
[5] = Hemolytic activity in Kunming mouse erythrocytes assessed as hemolytic rate at 256 uM incubated for 1 hr by multimode reader analysis relative to control; assay type: toxicity, cell-based, Erythrocyte; conditions: read-out: Activity
Cell membrane [6] = experiment: Induction of Cytoplasmic membrane depolarization in Staphylococcus aureus at 3.75 uM measured for every 10 mins by DiSC3(5) dye based fluorescence method
Pseudomonas aeruginosa [7] = experiment: Induction of drug resistance in Pseudomonas aeruginosa ATCC 27853 assessed as fold increase in MIC incubated for 24 hrs and measured under 40 passages; assay type: functional
Cell membrane [8] = experiment: Induction of cell membrane permeability in Staphylococcus aureus assessed as bacterial dissolve at 2 times MIC by SEM analysis; assay type: subcellular

Row | Compound | MIC (Klebsiella pneumoniae) | MIC (Bacillus subtilis) | MIC (Escherichia coli) | MIC (Pseudomonas aeruginosa [1]) | MHC10 [2] | Retention_time [3] | MIC [4] | MIC (Staphylococcus aureus) | hemolysis at 1 h, 256 µM [5] | Activity (Cell membrane [6]) | fold change (FC) (Pseudomonas aeruginosa [7]) | Activity (Cell membrane [8])
1 | NCCCC[C@H](NC(=O)CNC(=O)[C@H]1CCCN1C(=O)[C@H](CCCCN)NC(=O)[C@H](Cc1c[nH]c2ccccc12)NC(=O)[C@H](CCCCN)NC(=O)[C@H](Cc1c[nH]c2ccccc12)NC(=O)[C@H](CCCCN)NC(=O)[C@@H](N)Cc1c[nH]c2ccccc12)C(=O)N[C@@H](Cc1c[nH]c2ccccc12)C(=O)N[C@@H](CCCCN)C(=O)N[C@@H](Cc1c[nH]c2ccccc12)C(=O)N[C@@H](CCCCN)C(=O)N[C@@H](Cc1c[nH]c2ccccc12)C(N)=O (H-WKWKWK[dP]GKWKWKW-NH2) | 16 µM (≈ 32.9 µg/mL) | 2 µM (≈ 4.12 µg/mL) | 8 µM (≈ 16.5 µg/mL) | 4 µM (≈ 8.23 µg/mL) | > 256 µM | 14.49 min | 4 µM (≈ 8.23 µg/mL) | 8 µM (≈ 16.5 µg/mL) | – | – | – | –
2 | CO[C@H]1/C=C/O[C@@]2(C)Oc3c(C)c(O)c4c(O)c(c(/C=N/N5CCN(C)CC5)c(O)c4c3C2=O)NC(=O)/C(C)=C\C=C\[C@H](C)[C@H](O)[C@@H](C)[C@@H](O)[C@@H](C)[C@H](OC(C)=O)[C@@H]1C [RIFAMPIN] | 64 µM (≈ 52.7 µg/mL) | < 1 µM | 16 µM (≈ 13.2 µg/mL) | 32 µM (≈ 26.3 µg/mL) | – | – | < 1 µM | < 1 µM | – | – | – | –
3 | N=C(N)NCCC[C@H](NC(=O)[C@H](Cc1ccccc1)NC(=O)[C@H](CCCNC(=N)N)NC(=O)[C@H](Cc1ccccc1)NC(=O)[C@H](CCCNC(=N)N)NC(=O)CNC(=O)[C@H]1CCCN1C(=O)[C@H](CCCNC(=N)N)NC(=O)[C@H](Cc1ccccc1)NC(=O)[C@H](CCCNC(=N)N)NC(=O)[C@H](Cc1ccccc1)NC(=O)[C@@H](N)CCCNC(=N)N)C(N)=O | 16 µM (≈ 27.2 µg/mL) | 4 µM (≈ 6.79 µg/mL) | 8 µM (≈ 13.6 µg/mL) | 16 µM (≈ 27.2 µg/mL) | > 256 µM | 12.628 min | 4 µM (≈ 6.79 µg/mL) | 16 µM (≈ 27.2 µg/mL) | – | – | – | –
4 | NCCCC[C@H](NC(=O)CNC(=O)[C@H]1CCCN1C(=O)[C@H](CCCCN)NC(=O)[C@H](Cc1c[nH]c2ccccc12)NC(=O)[C@H](CCCCN)NC(=O)[C@@H](N)Cc1c[nH]c2ccccc12)C(=O)N[C@@H](Cc1c[nH]c2ccccc12)C(=O)N[C@@H](CCCCN)C(=O)N[C@@H](Cc1c[nH]c2ccccc12)C(N)=O (H-WKWK[dP]GKWKW-NH2) | > 128 µM | 8 µM (≈ 11.4 µg/mL) | 64 µM (≈ 91.4 µg/mL) | 8 µM (≈ 11.4 µg/mL) | > 256 µM | 13.817 min | 8 µM (≈ 11.4 µg/mL) | 64 µM (≈ 91.4 µg/mL) | – | – | – | –
5 | CC[C@H](C)[C@H](N)C(=O)N[C@@H](CCCNC(=N)N)C(=O)N[C@H](C(=O)N[C@@H](CCCNC(=N)N)C(=O)N[C@H](C(=O)N[C@@H](CCCNC(=N)N)C(=O)N1CCC[C@@H]1C(=O)NCC(=O)N[C@@H](CCCNC(=N)N)C(=O)N[C@H](C(=O)N[C@@H](CCCNC(=N)N)C(=O)N[C@H](C(=O)N[C@@H](CCCNC(=N)N)C(=O)N[C@H](C(N)=O)[C@@H](C)CC)[C@@H](C)CC)[C@@H](C)CC)[C@@H](C)CC)[C@@H](C)CC | 16 µM (≈ 28.6 µg/mL) | 2 µM (≈ 3.57 µg/mL) | 16 µM (≈ 28.6 µg/mL) | 4 µM (≈ 7.15 µg/mL) | 512 µM | 13.442 min | 8 µM (≈ 14.3 µg/mL) | 8 µM (≈ 14.3 µg/mL) | 4.1% | – | – | –
6 | N=C(N)NCCC[C@H](NC(=O)CNC(=O)[C@H]1CCCN1C(=O)[C@H](CCCNC(=N)N)NC(=O)[C@H](Cc1ccccc1)NC(=O)[C@H](CCCNC(=N)N)NC(=O)[C@@H](N)Cc1ccccc1)C(=O)N[C@@H](Cc1ccccc1)C(=O)N[C@@H](CCCNC(=N)N)C(=O)N[C@@H](Cc1ccccc1)C(N)=O | > 128 µM | 8 µM (≈ 11.1 µg/mL) | 64 µM (≈ 88.6 µg/mL) | 4 µM (≈ 5.54 µg/mL) | > 256 µM | 13.555 min | 16 µM (≈ 22.2 µg/mL) | 32 µM (≈ 44.3 µg/mL) | – | – | – | –
7 | CC[C@H](C)[C@H](N)C(=O)N[C@@H](CCCNC(=N)N)C(=O)N[C@H](C(=O)N[C@@H](CCCNC(=N)N)C(=O)N1CCC[C@@H]1C(=O)NCC(=O)N[C@@H](CCCNC(=N)N)C(=O)N[C@H](C(=O)N[C@@H](CCCNC(=N)N)C(=O)N[C@H](C(N)=O)[C@@H](C)CC)[C@@H](C)CC)[C@@H](C)CC | > 128 µM | 32 µM (≈ 40 µg/mL) | 128 µM (≈ 160 µg/mL) | 128 µM (≈ 160 µg/mL) | > 256 µM | 12.103 min | 64 µM (≈ 79.9 µg/mL) | 128 µM (≈ 160 µg/mL) | – | – | – | –
8 | CC(C)[C@@H]1NC(=O)[C@H](C)OC(=O)[C@@H](C(C)C)NC(=O)[C@@H](C(C)C)OC(=O)[C@H](C(C)C)NC(=O)[C@H](C)OC(=O)[C@@H](C(C)C)NC(=O)[C@@H](C(C)C)OC(=O)[C@H](C(C)C)NC(=O)[C@H](C)OC(=O)[C@@H](C(C)C)NC(=O)[C@@H](C(C)C)OC1=O | – | – | – | – | – | – | – | – | – | Active | – | –
9 | NC[C@H]1O[C@H](O[C@H]2[C@H](O)[C@@H](O[C@H]3O[C@H](CO)[C@@H](O)[C@H](N)[C@H]3O)[C@H](N)C[C@@H]2N)[C@H](O)[C@@H](O)[C@@H]1O [KANAMYCIN] | 64 µM (≈ 31 µg/mL) | < 1 µM | 8 µM (≈ 3.88 µg/mL) | > 128 µM | – | – | > 128 µM | < 1 µM | – | – | – | –
10 | CC[C@H](C)[C@H](N)C1=N[C@H](C(=O)N[C@@H](CC(C)C)C(=O)N[C@H](CCC(=O)O)C(=O)N[C@H](C(=O)N[C@H]2CCCCNC(=O)[C@H](CC(N)=O)NC(=O)[C@@H](CC(=O)O)NC(=O)[C@H](Cc3cnc[nH]3)NC(=O)[C@@H](Cc3ccccc3)NC(=O)[C@H]([C@@H](C)CC)NC(=O)[C@@H](CCCN)NC2=O)[C@@H](C)CC)CS1 [BACITRACIN] ({Ileψ(thiazoline)Cys}-L[dE]IK[dOrn]I[dF]H[dD]N; lactam 4-C) | > 128 µM | > 128 µM | > 128 µM | > 128 µM | – | – | 16 µM (≈ 22.8 µg/mL) | 32 µM (≈ 45.5 µg/mL) | – | – | – | –
11 | CC[C@H](C)[C@H](NC(=O)[C@H](CCCNC(=N)N)NC(=O)[C@@H](NC(=O)[C@H](CCCNC(=N)N)NC(=O)CNC(=O)[C@H]1CCCN1C(=O)[C@H](CCCNC(=N)N)NC(=O)[C@@H](NC(=O)[C@H](CCCNC(=N)N)NC(=O)[C@@H](NC(=O)[C@@H](N)CCCNC(=N)N)[C@@H](C)CC)[C@@H](C)CC)[C@@H](C)CC)C(=O)N[C@@H](CCCNC(=N)N)C(N)=O | 32 µM (≈ 50 µg/mL) | 4 µM (≈ 6.24 µg/mL) | 16 µM (≈ 25 µg/mL) | 16 µM (≈ 25 µg/mL) | > 256 µM | 11.367 min | 8 µM (≈ 12.5 µg/mL) | 32 µM (≈ 50 µg/mL) | – | – | – | –
12 | O=C(O)c1cn(C2CC2)c2cc(N3CCNCC3)c(F)cc2c1=O [CIPROFLOXACIN] | 8 µM (≈ 2.65 µg/mL) | 2 µM (≈ 0.663 µg/mL) | < 1 µM | 2 µM (≈ 0.663 µg/mL) | – | – | 8 µM (≈ 2.65 µg/mL) | 8 µM (≈ 2.65 µg/mL) | – | – | >128 | Active
13 | C[C@@H](O)[C@H]1C(=O)N2C(C(=O)O)=C(SCCNC=N)C[C@H]12 [IMIPENEM ANHYDROUS] | < 1 µM | < 1 µM | < 1 µM | 16 µM (≈ 4.79 µg/mL) | – | – | < 1 µM | < 1 µM | – | – | – | –
14 | NCCCC[C@H](NC(=O)[C@H](Cc1c[nH]c2ccccc12)NC(=O)[C@H](CCCCN)NC(=O)[C@H](Cc1c[nH]c2ccccc12)NC(=O)[C@H](CCCCN)NC(=O)CNC(=O)[C@H]1CCCN1C(=O)[C@H](CCCCN)NC(=O)[C@H](Cc1c[nH]c2ccccc12)NC(=O)[C@H](CCCCN)NC(=O)[C@H](Cc1c[nH]c2ccccc12)NC(=O)[C@@H](N)CCCCN)C(N)=O | 64 µM (≈ 108 µg/mL) | 2 µM (≈ 3.37 µg/mL) | 16 µM (≈ 27 µg/mL) | 32 µM (≈ 53.9 µg/mL) | > 256 µM | 12.66 min | 4 µM (≈ 6.74 µg/mL) | 32 µM (≈ 53.9 µg/mL) | – | – | – | –

Reference: ChEMBL document CHEMBL6087436, “The novel β-hairpin antimicrobial peptide D-G(RF)3 demonstrates exceptional antibacterial efficacy” (Eur J Med Chem, 2025)
